Source: US10457710B2, “Antimicrobial peptides, their variants and uses” (priority 2015, dated 2019)
Where a SMILES comes first, the peptide text is derived from it. Where no end group is shown, it is not given here. [ ]: non-standard residue; d: D form.

B1: En-MAP1: protein of 549 amino acids from an endophyte of Empetrum nigrum, GenBank accession number KC466596 (protein, listed as Empetrum nigrum)
chain: MRLVAHPVPDAPLYALMIKACSMGIPQPNDNLWKPRNPLLAKEEKTSKRGRTAPDTERALDLFREMTLRYNIRPTAEVYTAIIAACVKRDDMYDKGFGLFKKMVELERNRMSSEGHDSTSFAPTRATYNALLRGCARNKDLLRARWILAEMLRTAQAKWQEFMEKSKKGEEGVQEWELLEVEEMRPDTNTMAFLFYTYASHTTSSKAVPETEGKKELEGKAEERASEVTSVSPVSEPPEPMDESKLVYSLPTSSQAILREVTSLLDRIKSDQGQQSNLLSSVQINSKLLNSYIAVLSAHCRSSQVVERISEVVVGTKENPKSLFEETGTSVNGYTCFTVIDACGMMEHSPDTYHLACEMWQRWLSLVENATFHRENPLKAKEIGLDSRTISDCWSAMIRLHAKYNQVDEAMKLVHEFARLYPPASLFNSLTFEPSSTSSSSLSPRKGVQEISPLFSSTSLTHSIRGRDISRIQNTMSQDPTLQFRAVQILHLRLVELETRPKDLAYLSWLLKSYEHQLQPKRPKSLQGDLFTSRQAAYNRIVQQRTSSR

Assays:
[1] = system: human erythrocytes; assay type: cell-based
Experimental: In hemolysis assays, the ability of peptides at 128 μg/ml concentration to lyse human erythrocytes to release hemoglobin was measured. The peptides described here preferably have low hemolytic activity (0.2 to 3.8% hemolysis) in mammal body. […] These peptides are useful as antimicrobial drugs as they show little or no side effects at concentrations needed to kill bacteria.
Minimum inhibition concentrations (MICs) were tested by microbroth dilution method and Chain 104, 105 and 109 inhibited the growth of Escherichia coli (ATCC 25922), Staphylococcus aureus (ATCC 25923), Klebsiella pneumoniae (ATCC 10031) and Pseudomonas aeruginosa (ATCC 27853) between 1-8 μg/ml respectively (Tables 3a, 3b and 3c). The membranolytic activities of the peptides were tested by measuring the release of hemoglobin from erythrocytes of fresh blood donated by voluntiers. Hemoglobin levels were determined spectrometrically by taking OD at 540 nm by following the protocol of Schmidtchen et al., 2011.

[2] = +4, 25, 37 and 45° C., 14 days, PBS pH 7.4, activity by RDA
Experimental: FIG. 8a. […] Antibacterial activity was tested by aliquoting 20 μg of peptides incubated at different temperature and activity was measured by zone of inhibition. Peptides at −20° C. served as control.
(§1) Thermal stability was evaluated by diluting peptides to the concentration of 2 mg/ml in PBS buffer (pH 7.4) and incubating at different temperatures, such as +4° C., 25° C. (RT), 37° C. and 45° C., peptides stored at −20° C. were used as control. After each time interval, 100 μl (2 mg/ml) of peptides were taken and stored at −20° C. for radial diffusion assay to determine the antibacterial activity (FIG. 8). Peptides were also tested by diluting them at different pH values starting from pH 4 to 9. The effect of NaCl on the antimicrobial activity was tested by adding different concentrations (50, 100 and 200 mM) of NaCl to MH medium and the minimum inhibitory concentrations were tested against 4 ATCC bacterial strains.

[3] = pH 4 to 9, activity by RDA
Experimental: FIG. 9a. pH stability of chain peptides 104 and 105 was determined by radial diffusion assay (RDA). Different pH ranging from 4-9 was used to check the zone of inhibition.
as §1

[4] = system: S. aureus RN4220; assay type: cell-based; settings: antibiotic sensitive strain S. aureus RN4220
Experimental: Minimum inhibition concetrations (MICs) were determined against Escherichia coli (ATCC 25922), Staphylococcus aureus (ATCC 25923), Klebsiella pneumoniae (ATCC 10031) and Pseudomonas aeruginosa (ATCC 27853). Also clinical strains of E. coli, K. pneumoniae, E. cloacae, P. aeruginosa, Serratia marcescens, Proteus mirabilis, S. pneumoniae, Acinetobacter baumannii, A. johnsonii and S. aureus were used for MICs assays. Additionally, clinical strains of yeast including Candida albicans, C. glabrata, C. parapsilosis and C. quillermondiae were used. The susceptibility of these microorganisms to Chain peptides were determined using micro broth dilution assay. Colonies of the respective microorganism from Muller Hinton (MH) agar plates incubated overnight were suspended in MH broth media and final concentration of microorganism was adjusted to 5.0×10^5 cfu/ml. An aliquot of 10 μl of each Chain peptide, or gentamicin, tetracycline as reference antibiotics were added in differing concentrations along with 90 μl of bacterial suspension to 96 well polypropylene plates and incubated at 37° C. for 20 to 24 hours. Concentrations of Chain peptides and reference antibiotics ranged from 0.125 to 128 μg/ml and the MICs were recorded as the lowest concentration with no visual growth of bacteria. Similarly, antifungal MICs were tested in Potato dextrose broth.
(§2) Peptides Chain 104, Chain 105, Chain 201, Chain 308, Chain 310 were tested against antibiotic-sensitive strains of S. aureus RN4220 and methicillin resistant strains of S. aureus COL (MRSA). Chain peptides comprising of either L- or D-form amino acids were tested against these bacteria, and the D-form peptides were found have better activity compared to L-form (Table 6). Synergistic activity of chain peptides along with Ertapenem (4 μg/ml) was tested to know whether it will influence the activity against MRSA strains. […] Chain 310 has the best antibacterial activity against the MRSA strains with a MIC of 0.06 & 0.03 μg/ml along with Ertapenem (4 μg/ml) for both forms of L and D-peptides (Table 6).

[5] = system: MRSA strains; experiment: MIC, synergistic activity with Ertapenem (4 μg/ml); assay type: cell-based, S. aureus; settings: S. aureus COL with 4 μg/ml Ertapenem (synergistic activity)
Experimental: as §2

[6] = system: S. aureus; experiment: Antibacterial activity analysis of protein on LB plate; assay type: cell-based
Experimental: Both folded and unfolded proteins were tested for antibacterial activity against S. aureus by pipetting 10 μg of protein on the S. aureus culture on an LB plate. The activity was also tested in folded and unfolded protein digested with trypsin in 0.01% acetic acid at concentrations of 30 and 60 μg/ml.

| Molecule | side effects to humans as tested by hemolysis assay [1] | thermostability [2] | pH stability [3] | Minimum inhibitory concentration (MICs), S. aureus RN4220 [4] [µg/mL] | Minimum inhibitory concentration (MICs), S. aureus COL + 4 μg/ml Ertapenem [5] [µg/mL] | further results |
| --- | --- | --- | --- | --- | --- | --- |
| RLKWFLLFRKR [Chain308] | little side effects to humans | not hindered by pH or temperature even upto 45 °C for over 14 days | not hindered by pH | – | – | – |
| RLKRWRLFRKR [Chain306] | – | not hindered by pH or temperature even upto 45 °C for over 14 days | not hindered by pH | – | – | – |
| KRKWRWLFKKL [Chain310] | little side effects to humans | – | – | – | – | – |
| RLKWFLLFRKR [Compound 308] | – | – | – | >64 | 0.5 | – |
| KWIVWRWRFKR [Chain201] | little side effects to humans | not hindered by pH or temperature even upto 45 °C for over 14 days | not hindered by pH | – | – | – |
| CC(C)C[C@@H](NC(=O)[C@@H](CCCCN)NC(=O)[C@@H](CCCCN)NC(=O)[C@@H](Cc1ccccc1)NC(=O)[C@@H](CC(C)C)NC(=O)[C@@H](Cc1c[nH]c2ccccc12)NC(=O)[C@@H](CCCNC(=N)N)NC(=O)[C@@H](Cc1c[nH]c2ccccc12)NC(=O)[C@@H](CCCCN)NC(=O)[C@@H](CCCNC(=N)N)NC(=O)[C@H](N)CCCCN)C(=O)O [310 D] (H-[dK][dR][dK][dW][dR][dW][dL][dF][dK][dK][dL]-OH) | – | – | – | >64 | <0.03 | – |
| CC[C@@H](C)[C@@H](NC(=O)[C@@H](Cc1c[nH]c2ccccc12)NC(=O)[C@H](N)CCCCN)C(=O)N[C@@H](C(=O)N[C@H](Cc1c[nH]c2ccccc12)C(=O)N[C@H](CCCNC(=N)N)C(=O)N[C@H](Cc1c[nH]c2ccccc12)C(=O)N[C@H](CCCNC(=N)N)C(=O)N[C@H](Cc1ccccc1)C(=O)N[C@H](CCCCN)C(=O)N[C@H](CCCNC(=N)N)C(=O)O)C(C)C [201 D] (H-[dK][dW][dI][dV][dW][dR][dW][dR][dF][dK][dR]-OH) | – | – | – | 2 | 1 | – |
| RKWRAMIRLHAKWLRK [Compound 105] | – | – | – | >64 | 0.5 | – |
| WWRLHAKWKLW [Chain109] | little side effects to humans | – | – | – | – | – |
| RKWRAMIRLHAKRLRK [Chain104] | little side effects to humans | not hindered by pH or temperature even upto 45 °C for over 14 days | not hindered by pH | – | – | – |
| RKWRAMIRLHAKRLRK [Compound 104] | – | – | – | >64 | 0.25 | – |
| RKWRAMIRLHAKWLRK [Chain105] | little side effects to humans | not hindered by pH or temperature even upto 45 °C for over 14 days | not hindered by pH | – | – | – |
| CC(C)C[C@@H](NC(=O)[C@H](N)CCCNC(=N)N)C(=O)N[C@H](CCCCN)C(=O)N[C@H](Cc1c[nH]c2ccccc12)C(=O)N[C@H](Cc1ccccc1)C(=O)N[C@H](CC(C)C)C(=O)N[C@H](CC(C)C)C(=O)N[C@H](Cc1ccccc1)C(=O)N[C@H](CCCNC(=N)N)C(=O)N[C@H](CCCCN)C(=O)N[C@H](CCCNC(=N)N)C(=O)O [308 D] (H-[dR][dL][dK][dW][dF][dL][dL][dF][dR][dK][dR]-OH) | – | – | – | 4 | 1 | – |
| KWIVWRWRFKR [Compound 201] | – | – | – | 64 | 0.5 | – |
| CC[C@@H](C)[C@@H](NC(=O)[C@@H](CCSC)NC(=O)[C@@H](C)NC(=O)[C@@H](CCCNC(=N)N)NC(=O)[C@@H](Cc1c[nH]c2ccccc12)NC(=O)[C@@H](CCCCN)NC(=O)[C@H](N)CCCNC(=N)N)C(=O)N[C@H](CCCNC(=N)N)C(=O)N[C@H](CC(C)C)C(=O)N[C@H](Cc1c[nH]cn1)C(=O)N[C@H](C)C(=O)N[C@H](CCCCN)C(=O)N[C@H](CCCNC(=N)N)C(=O)N[C@H](CC(C)C)C(=O)N[C@H](CCCNC(=N)N)C(=O)N[C@H](CCCCN)C(=O)O [104 D] (H-[dR][dK][dW][dR][dA][dM][dI][dR][dL][dH][dA][dK][dR][dL][dR][dK]-OH) | – | – | – | 64 | 4 | – |
| CC[C@@H](C)[C@@H](NC(=O)[C@@H](CCSC)NC(=O)[C@@H](C)NC(=O)[C@@H](CCCNC(=N)N)NC(=O)[C@@H](Cc1c[nH]c2ccccc12)NC(=O)[C@@H](CCCCN)NC(=O)[C@H](N)CCCNC(=N)N)C(=O)N[C@H](CCCNC(=N)N)C(=O)N[C@H](CC(C)C)C(=O)N[C@H](Cc1c[nH]cn1)C(=O)N[C@H](C)C(=O)N[C@H](CCCCN)C(=O)N[C@H](Cc1c[nH]c2ccccc12)C(=O)N[C@H](CC(C)C)C(=O)N[C@H](CCCNC(=N)N)C(=O)N[C@H](CCCCN)C(=O)O [105 D] (H-[dR][dK][dW][dR][dA][dM][dI][dR][dL][dH][dA][dK][dW][dL][dR][dK]-OH) | – | – | – | 16 | 2 | – |
| KRKWRWLFKKL [Compound 310] | – | – | – | >64 | 0.06 | – |
| RRLIWRRFKWLR [Chain204] | little side effects to humans | not hindered by pH or temperature even upto 45 °C for over 14 days | not hindered by pH | – | – | – |
| RLKWFWLFRKR [Chain307] | little side effects to humans | – | – | – | – | – |
| B1 | – | – | – | – | – | antibacterial activity against S. aureus ([6]; expressed, folded protein): no activity was observed; antibacterial activity against S. aureus ([6]; folded full protein digested with trypsin, data not shown): antibacterial activity was observed for up to two hours after digestion; antibacterial activity against S. aureus ([6]; trypsin digest of the unfolded protein): No activity was detected |
